Experimental data taken from patent publication US10294202B2, “Pyrrolidinones as herbicides” (FMC Corporation, priority 2013, dated 2019).

Assays:
cupgrass, woolly = assay: Test C pre-/postemergence herbicide test; type: in vivo, Eriochloa villosa
Outline: (§1)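 Test compounds, formulated in a surfactant-containing non-phytotoxic solvent blend, are applied to seeded loam/sand soil (preemergence) and to young plants at the 1- to 4-leaf stage in peat-based medium (postemergence). Plants stay 13 to 15 days under greenhouse conditions, then are scored visually relative to controls, 0 = no effect, 100 = complete control.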

cocklebur = assay: Test C pre-/postemergence herbicide test; type: in vivo, Xanthium strumarium
Outline: as §1

nightshade = assay: Test C pre-/postemergence herbicide test; type: in vivo, Solanum ptycanthum; conditions: Preemergence
Outline: as §1

bromegrass, downy = assay: Test C pre-/postemergence herbicide test; type: in vivo, Bromus tectorum
Outline: as §1

foxtail, green = assay: Test C pre-/postemergence herbicide test; type: in vivo, Setaria viridis
Outline: as §1

chickweed = assay: Test C postemergence herbicide test; type: in vivo, Stellaria media
Description: At the same time, plants selected from these crop and weed species and also barley (winter barley, Hordeum vulgare), […]), chickweed (common chickweed, Stellaria media), deadnettle (henbit deadnettle, Lamium amplexicaule), and canarygrass (littleseed canarygrass, Phalaris minor) were planted in pots containing Redi-Earth® planting medium (Scotts Company, 14111 Scottslawn Road, Marysville, Ohio 43041) comprising spaghnum peat moss, vermiculite, wetting agent and starter nutrients and treated with postemergence applications of test chemicals formulated in the same manner. Plants ranged in height from 2 to 18 cm (1- to 4-leaf stage) for postemergence treatments. Treated plants and controls were maintained in a greenhouse for 13 to 15 days, after which time all species were compared to controls and visually evaluated. Plant response ratings, summarized in Table C, are based on a scale of 0 to 100 where 0 is no effect and 100 is complete control. A dash (-) response means no test result.

goosegrass = assay: Test C pre-/postemergence herbicide test; type: in vivo, Eleusine indica
Outline: as §1

surinam grass = assay: Test C pre-/postemergence herbicide test; type: in vivo, Brachiaria decumbens
Outline: as §1

Russian thistle = assay: Test C pre-/postemergence herbicide test; type: in vivo, Salsola kali; conditions: Preemergence
Description: Seeds of plant species selected from blackgrass (Alopecurus myosuroides), ryegrass, Italian (Italian ryegrass, Lolium multiflorum), wheat (winter wheat, Triticum aestivum), galium (catchweed bedstraw, Galium aparine), corn (Zea mays), crabgrass, large (large crabgrass, Digitaria sanguinalis), foxtail, giant (giant foxtail, Setaria faberii), johnsongrass (Sorghum halepense), lambsquarters (Chenopodium album), morningglory (Ipomoea coccinea), nutsedge, yellow (yellow nutsedge, Cyperus esculentus), pigweed (Amaranthus retroflexus), ragweed (common ragweed, Ambrosia elatior), soybean (Glycine max), barnyardgrass (Echinochloa crus-galli), oilseed rape (Brassica napus), waterhemp (common waterhemp, Amaranthus rudis), kochia (Kochia scoparia), oat, wild (wild oat, Avena fatua), surinam grass (Brachiaria decumbens), foxtail, green (green foxtail, Setaria viridis), goosegrass (Eleusine indica), bromegrass, downy (downy bromegrass, Bromus tectorum), nightshade (eastern black nightshade, Solanum ptycanthum), cocklebur (common cocklebur, Xanthium strumarium), cupgrass, woolly (woolly cupgrass, Eriochloa villosa), bermudagrass (Cynodon dactylon), sunflower, (common oilseed sunflower, Helianthus annuus), Russian thistle (Salsola kali) and velvetleaf (Abutilon theophrasti) were planted into a blend of loam soil and sand and treated preemergence with test chemicals formulated in a non-phytotoxic solvent mixture which included a surfactant. At the same time, plants selected from these crop and weed species and also barley (winter barley, Hordeum vulgare), […]), chickweed (common chickweed, Stellaria media), deadnettle (henbit deadnettle, Lamium amplexicaule), and canarygrass (littleseed canarygrass, Phalaris minor) were planted in pots containing Redi-Earth® planting medium (Scotts Company, 14111 Scottslawn Road, Marysville, Ohio 43041) comprising spaghnum peat moss, vermiculite, wetting agent and starter nutrients and treated with postemergence applications of test chemicals formulated in the same manner. Plants ranged in height from 2 to 18 cm (1- to 4-leaf stage) for postemergence treatments. Treated plants and controls were maintained in a greenhouse for 13 to 15 days, after which time all species were compared to controls and visually evaluated. Plant response ratings, summarized in Table C, are based on a scale of 0 to 100 where 0 is no effect and 100 is complete control. A dash (-) response means no test result.

bermudagrass = assay: Test C pre-/postemergence herbicide test; type: in vivo, Cynodon dactylon
Outline: as §1

sunflower = assay: Test C pre-/postemergence herbicide test; type: in vivo, Helianthus annuus; conditions: Preemergence
Outline: as §1

[1] = Postemergence, 31 g ai/ha, scale 0 (no effect) to 100 (complete control)
[2] = Postemergence, 62 g ai/ha, scale 0 to 100 (0 no effect, 100 complete control)
[3] = Postemergence, 125 g ai/ha, scale 0 to 100 (0 no effect, 100 complete control)
[4] = Postemergence, 250 g ai/ha, scale 0 to 100 (0 no effect, 100 complete control)
[5] = Preemergence, 31 g ai/ha, scale 0 to 100, 0 is no effect and 100 is complete control
[6] = Preemergence, 62 g ai/ha, scale 0 to 100
[7] = Preemergence, 125 g ai/ha, scale 0 to 100 (0 no effect, 100 complete control)
[8] = 31 g ai/ha, scale 0 to 100, 0 is no effect and 100 is complete control
[9] = 125 g ai/ha, scale 0 to 100 (0 no effect, 100 complete control)

O=C1NCC(c2ccccc2)C1C(=O)Nc1ccccc1F (racemic) [Compound 81]
Plant response rating, Cupgrass, Woolly (cupgrass, woolly; [1]): 0
Plant response rating, Cupgrass, Woolly (cupgrass, woolly; [2]): 0
Plant response rating, Cupgrass, Woolly (cupgrass, woolly; [3]): 0
Plant response rating, Cupgrass, Woolly (cupgrass, woolly; [4]): 0
Cupgrass, Woolly plant response rating (cupgrass, woolly; [5]): 0
Plant response rating, Cupgrass, Woolly (cupgrass, woolly; [6]): 32
Plant response rating, Cupgrass, Woolly (cupgrass, woolly; [7]): 67
Plant response rating (scale of 0 to 100), Cupgrass, Woolly (cupgrass, woolly; Preemergence, 250 g ai/ha): 82
Plant response rating, Cocklebur (cocklebur; [1]): 0
Plant response rating, Cocklebur (cocklebur; [2]): 0
Plant response rating, Cocklebur (cocklebur; [3]): 0
Plant response rating, Cocklebur (cocklebur; [4]): 0
Cocklebur plant response rating (cocklebur; [5]): 0
Plant response rating, Cocklebur (cocklebur; [6]): 0
Plant response rating, Cocklebur (cocklebur; [7]): 0
Plant response rating (scale of 0 to 100), Cocklebur (cocklebur; Preemergence, 250 g ai/ha): 0
Nightshade plant response rating (nightshade; [8]): 0
Plant response rating, Nightshade (nightshade; 62 g ai/ha, scale 0 to 100): 0
Plant response rating, Nightshade (nightshade; [9]): 0
Plant response rating (scale of 0 to 100), Nightshade (nightshade; 250 g ai/ha): 0
Plant response rating, Bromegrass, Downy (bromegrass, downy; [1]): 0
Plant response rating, Bromegrass, Downy (bromegrass, downy; [2]): 0
Plant response rating, Bromegrass, Downy (bromegrass, downy; [3]): 0
Plant response rating, Bromegrass, Downy (bromegrass, downy; [4]): 7
Bromegrass, Downy plant response rating (bromegrass, downy; [5]): 0
Plant response rating, Bromegrass, Downy (bromegrass, downy; [6]): 0
Plant response rating, Bromegrass, Downy (bromegrass, downy; [7]): 0
Plant response rating (scale of 0 to 100), Bromegrass, Downy (bromegrass, downy; Preemergence, 250 g ai/ha): 0
Plant response rating, Foxtail, Green (foxtail, green; [1]): 5
Plant response rating, Foxtail, Green (foxtail, green; [2]): 5
Plant response rating, Foxtail, Green (foxtail, green; [3]): 20
Plant response rating, Foxtail, Green (foxtail, green; [4]): 48
Foxtail, Green plant response rating (foxtail, green; [5]): 20
Plant response rating, Foxtail, Green (foxtail, green; [6]): 67
Plant response rating, Foxtail, Green (foxtail, green; [7]): 80
Plant response rating (scale of 0 to 100), Foxtail, Green (foxtail, green; Preemergence, 250 g ai/ha): 90
Plant response rating, Chickweed (chickweed; 31 g ai/ha, scale 0 (no effect) to 100 (complete control)): 0
Plant response rating, Chickweed (chickweed; 62 g ai/ha, scale 0 to 100 (0 no effect, 100 complete control)): 0
Plant response rating, Chickweed (chickweed; [9]): 0
Plant response rating, Chickweed (chickweed; 250 g ai/ha, scale 0 to 100 (0 no effect, 100 complete control)): 0
Plant response rating, Goosegrass (goosegrass; [1]): 0
Plant response rating, Goosegrass (goosegrass; [2]): 0
Plant response rating, Goosegrass (goosegrass; [3]): 0
Plant response rating, Goosegrass (goosegrass; [4]): 0
Goosegrass plant response rating (goosegrass; [5]): 0
Plant response rating, Goosegrass (goosegrass; [6]): 0
Plant response rating, Goosegrass (goosegrass; [7]): 0
Plant response rating (scale of 0 to 100), Goosegrass (goosegrass; Preemergence, 250 g ai/ha): 0
Plant response rating, Surinam Grass (surinam grass; [1]): 0
Plant response rating, Surinam Grass (surinam grass; [2]): 0
Plant response rating, Surinam Grass (surinam grass; [3]): 0
Plant response rating, Surinam Grass (surinam grass; [4]): 0
Surinam Grass plant response rating (surinam grass; [5]): 0
Plant response rating, Surinam Grass (surinam grass; [6]): 53
Plant response rating, Surinam Grass (surinam grass; [7]): 77
Plant response rating (scale of 0 to 100), Surinam Grass (surinam grass; Preemergence, 250 g ai/ha): 90
Russian Thistle plant response rating (Russian thistle; [8]): 0
Plant response rating, Russian Thistle (Russian thistle; 62 g ai/ha, scale 0 to 100): 0
Plant response rating, Russian Thistle (Russian thistle; [9]): 0
Plant response rating (scale of 0 to 100), Russian Thistle (Russian thistle; 250 g ai/ha): 0
Plant response rating, Bermudagrass (bermudagrass; [1]): 0
Plant response rating, Bermudagrass (bermudagrass; [2]): 0
Plant response rating, Bermudagrass (bermudagrass; [3]): 0
Plant response rating, Bermudagrass (bermudagrass; [4]): 0
Bermudagrass plant response rating (bermudagrass; [5]): 0
Plant response rating, Bermudagrass (bermudagrass; [6]): 0
Plant response rating, Bermudagrass (bermudagrass; [7]): 0
Plant response rating (scale of 0 to 100), Bermudagrass (bermudagrass; Preemergence, 250 g ai/ha): 0
Sunflower plant response rating (sunflower; [8]): 0
Plant response rating Sunflower (sunflower; 62 g ai/ha, scale 0 to 100): 0
Plant response rating Sunflower (sunflower; [9]): 0
Plant response rating (scale of 0 to 100), Sunflower (sunflower; 250 g ai/ha): 0
